Experimental data as given in the NIST ThermoML archive (doi:10.1016/j.jct.2011.12.015).

Key:
[1] = molar heat capacity at constant pressure; details: 101.33 kPa, Small sample (50 mg) DSC
[2] = Crystal; DTA
[3] = Molar enthalpy of transition or fusion; details: Crystal; DSC

O=C(O)c1ccccc1 [benzoic acid]
[1]
Details | molar heat capacity at constant pressure [J/K/mol]
281.06 K, Crystal | 137.39
287.01 K, Crystal | 140.07
293.02 K, Crystal | 142.88
299 K, Crystal | 145.2
305.01 K, Crystal | 147.4
311.02 K, Crystal | 149.72
317 K, Crystal | 152.16
323.03 K, Crystal | 154.48
329.02 K, Crystal | 156.93
335.02 K, Crystal | 159.49
341.01 K, Crystal | 161.93
347.02 K, Crystal | 164.38
353 K, Crystal | 166.7
359.01 K, Crystal | 168.89
365.01 K, Crystal | 171.21
369.32 K, Crystal | 172.8
407.4 K, Liquid | 230.44
409 K, Liquid | 231.42
410.6 K, Liquid | 232.15
413.2 K, Liquid | 233.01
414.8 K, Liquid | 233.5
416.5 K, Liquid | 233.74
418 K, Liquid | 233.98
419.6 K, Liquid | 234.35
421.2 K, Liquid | 234.72
422.8 K, Liquid | 235.08
424.4 K, Liquid | 235.45
426 K, Liquid | 235.82
427.6 K, Liquid | 236.06
429.2 K, Liquid | 236.43
430.8 K, Liquid | 236.79
432 K, Liquid | 237.16

Details | Molar enthalpy of transition or fusion [kcal/mol] | Normal melting temperature [°C]
[2] | – | 121.80
[3] | 4.02 | –

CCCCOC(=O)c1ccc(O)cc1 [butyl 4-hydroxybenzoate]
[1]
Details | molar heat capacity at constant pressure [J/K/mol]
291.02 K, Crystal | 264.15
293.6 K, Crystal | 266.09
296.12 K, Crystal | 268.23
298.7 K, Crystal | 270.36
301.32 K, Crystal | 272.5
303.91 K, Crystal | 274.64
306.52 K, Crystal | 276.58
309.1 K, Crystal | 278.72
311.71 K, Crystal | 281.05
314.32 K, Crystal | 283.18
316.9 K, Crystal | 285.32
319.51 K, Crystal | 287.65
322.12 K, Crystal | 289.79
324.73 K, Crystal | 292.31
328.33 K, Crystal | 296.2
329.85 K, Crystal | 298.33
330.99 K, Crystal | 299.89
353.41 K, Liquid | 386.9
355.11 K, Liquid | 388.45
356.8 K, Liquid | 389.04
358.41 K, Liquid | 389.81
360.1 K, Liquid | 390.4
361.82 K, Liquid | 391.17
363.51 K, Liquid | 391.76
365.21 K, Liquid | 392.53
366.81 K, Liquid | 392.92
368.41 K, Liquid | 393.7
370.1 K, Liquid | 394.09
371.82 K, Liquid | 394.67
373.51 K, Liquid | 395.25
375.2 K, Liquid | 395.83
376.92 K, Liquid | 396.42
378.61 K, Liquid | 397
379.87 K, Liquid | 397.39

Details | Molar enthalpy of transition or fusion [kcal/mol] | Normal melting temperature [°C]
[2] | – | 67.34
[3] | 6.1 | –
